Laboratory results: article PMC9960243, “Cytotoxic and Antileishmanial Effects of the Monoterpene β-Ocimene” (Pharmaceuticals, 2023)
Where two headings read alike, the source gives them in different places. Blank lines part the entries; values can stand above or below the compound they belong to.

What was measured:
[1] = tested on: L. infantum promastigotes; set-up: method as in PMID 31151304; conditions: read-out: IC50 against L. infantum promastigotes; cited from earlier work
[2] = tested on: Leishmania (Leishmania) amazonensis axenic amastigotes; experiment: microbe, parasite or virus in culture; format: cell-based; conditions: 72 h; for EC50: MTT
Method: (§1) Strains of Leishmania (Leishmania) amazonensis (IFLA/BR/67/PH8) (promastigote form) were cultivated in Schneider’s insect medium (supplemented with 10% FBS, and 1% antibiotic solution), at 26 °C, and at pH 7, in a biological oxygen demand (BOD) incubator. To transform the promastigote forms into axenic amastigotes, the temperature was increased to 32 °C and the pH of the medium was adjusted to 5.5 [14].
(§2) Promastigote and axenic amastigote growth inhibition was tested as previously described by DIAS et al.. In a 96-well plate, parasites were seeded at 10^6 parasites per well in 100 μL of supplemented Schneider medium. The parasites were treated with differing concentrations of β-ocimene (1.56–12.5 μM), and reference drugs, meglumine antimoniate (500–40,000 μM) and amphotericin B (0.062–0.5 μM). The plates were incubated in a BOD incubator at 26 °C for 72 h. Afterwards, 10 µL of MTT (5 mg/mL) was added to each well, and the plate was incubated again for 4 h, when 50 µL of 10% SDS was added. Absorbances were then measured using an ELISA plate reader (BioSystems model ELx800, Curitiba, PR, Brazil) at 540 nm. The negative control consisted of Schneider medium with 0.5% DMSO and was considered as 0% inhibition.

[3] = tested on: Leishmania (Leishmania) amazonensis promastigotes; experiment: microbe, parasite or virus in culture; format: cell-based; conditions: 72 h; for IC50: MTT
Method: as §1, §2

[4] = Cytotoxic effect on mammalian cells (MTT, 72 h), RAW 264.7; format: cell-based; conditions: mouse, RAW 264.7 macrophages; for CC50 at 72 h: pH 7.2, MTT
Method: (§3) RAW 264.7 lineage macrophages (available from the cell bank in Rio de Janeiro, Brazil) were used, grown in sterile bottles with DMEM medium, pH 7.2 containing 10% FBS and 1% penicillin 100 U/mL and streptomycin 100 μg/mL, and kept in an oven at 37 °C and 5% CO2.
(§4) In a 96-well plate, RAW 264.7 macrophages were plated at 10^5 cells per well in 100 μL of supplemented DMEM medium. The plate was incubated for 3 h at 37 °C and 5% CO2 for cell adhesion. Afterwards, to remove non-adhered cells, washing with PBS (phosphate-buffered saline solution) was performed. Furthermore, 100 μL of DMEM supplemented with β-ocimene (3.12–400 μM), and the reference drugs, meglumine antimoniate (250–2000 μM) and amphotericin B (0.062–0.5 μM) were then added to the wells, with oven incubation at 37 °C, and 5% CO2 for 72 h. Then, 10 μL of MTT (5 mg/mL) per well was then added, being kept for another 4 h in an oven at 37 °C and 5% CO2. The supernatant was removed, and 100 µL of DMSO was added to all wells. After 30 min of stirring, readings were taken at 540 nm. DMEM supplemented with 0.5% DMSO was used as a negative control and considered as 100% macrophage viability. The selectivity index for each treatment was calculated by dividing the CC50 by the IC50, or EC50 [32].

[5] = Cytotoxic effect on mammalian cells, Vero; format: cell-based; conditions: African green monkey, Vero cells
[6] = tested on: RAW 264.7 macrophages infected with Leishmania amazonensis; experiment: Treatment of infected macrophages (intra-macrophagic amastigotes, 72 h); format: cell-based; conditions: for EC50: infected RAW 264.7 macrophages, read-out: Intramacrophagic Amastigotes EC50
Method: In a 24-well plate with 13 mm round sterile cover slips, RAW 264.7 macrophages were added (at a concentration of 10^5 cells to 1 mL of supplemented DMEM. For cell adhesion, the plates were incubated at 37 °C and 5% CO2 for 3 h. Three washes were then performed with PBS at 37 °C to discard non-adherent cells, after which 1 mL of DMEM supplemented (stationary phase) promastigote forms of L. amazonensis was added at the ratio of 10 promastigotes per macrophage. The plate was then incubated at 5% CO2 and 37 °C for 4 h. After infection, the medium was aspirated and the treatment was added using 1 mL of DMEM supplemented with β-ocimene (3.12–25 μM) with the reference drugs, meglumine antimoniate (1.56–200 μM) and amphotericin B (0.031–2 μM), this was subsequently incubated at 37 °C and 5% CO2 for 72 h. Finally, the coverslips were removed, fixed, stained, and mounted on permanent slides using Entellan. The number of infected macrophages and the number of parasites per macrophage were counted: 300 cells were evaluated on each slide at 1000× magnification. The infection index was calculated by multiplying the number of infected macrophages by the number of amastigotes per infected macrophage. The negative control was performed using DMEM with 0.5% DMSO. The supernatant was removed at the end of the experiment and kept at −20 °C for later use in nitric oxide dosing tests.

[7] = tested on: Leishmania amazonensis promastigote plasmatic membrane; format: cell-based; conditions: not told
Method: Plasma membrane integrity in promastigote forms of L. amazonensis treated with β-ocimene was evaluated using the SYTOX green dye method. Promastigote forms in logarithmic growth were seeded in Schneider medium and exposed to β-ocimene at concentrations corresponding to IC50, 2 × IC50 and 4 × IC50 in the presence of SYTOX green dye (5 μM) for 7 h at 26 °C in a BOD incubator. The plates were then read in a fluorescence reader with an emission filter of 523 nm and excitation at 488 nm.

[8] = tested on: Promastigote forms of L. amazonensis; experiment: Parasite morphological evaluation using atomic force microscopy (AFM); format: cell-based, Leishmania amazonensis; conditions: 1 × IC50 and 2 × IC50, 72 h
Method: Promastigote forms of L. amazonensis were grown in 96-well plates at a concentration of 10^6 per well in complete Schneider medium. β-ocimene was added at concentrations equivalent to IC50, 2 × IC50, and 4 × IC50, and incubated at 26 °C for 72 h in BOD, and the parasites were then washed twice with ice-cold PBS (under 1100× g for 15 min at room temperature), and then fixed with 2.5% (v/v) glutaraldehyde in PBS, pH 7.2, for 1 h. Morphological analysis using AFM (TT-AFM equipment, AFM Workshop-USA), at a resonant frequency of approximately 242 kHz, was then performed.

[9] = tested on: RAW 264.7 macrophages uninfected and infected with Leishmania amazonensis; experiment: Th1/Th2 cytokine (ELISA) and nitric oxide (Griess) production in macrophage supernatants; format: cell-based; conditions: 72 h
Method: Modulation of Th1 (TNF-α, IL-12), Th2 (IL-10, IL-6), and NO cytokine production was investigated in the supernatants of infected macrophages, whether treated or untreated with β-ocimene. Cytokine concentration (pg/mL) in macrophage supernatants was determined using the ELISA sandwich technique according to the manufacturer’s (eBioscience) instructions, using interpolation with a standard curve of recombinant cytokines. Optical density was read at 450 nm using a microplate spectrophotometer.
Nitrite levels from the supernatants of the infected macrophages, whether treated or untreated with β-ocimene, were used indirectly to estimate NO production. The NO concentration (µM) was determined using the Griess reaction following a previously described methodology, by interpolation with a standard curve with NaNO2.
LPS (1 μg/mL) plus IFN-γ (1000 U/mL) were used as a positive control.

[10] = tested on: macrophages infected with L. amazonensis; experiment: Measurement of reactive oxygen species (H2DCFDA); format: cell-based; conditions: RAW 264.7 macrophages infected with L. amazonensis, 72 h
Method: ROS levels, as produced by the macrophages infected with L. amazonensis and treated with β-ocimene, were determined by the H2DCFDA test. Macrophages were infected according to Section 2.5 and treated with β-ocimene (3.12–12.6 µM) for 72 h. At the end of the period, 10 µL of 20 µM H2 DCFDA dye was added. The plate was incubated at 37 °C for 30 min (in the dark), and the fluorescence intensity was measured using a spectrofluorometer (FLx800) with excitation at 485 nm and emission at 528 nm.

[11] = tested on: RAW 264.7 macrophages; experiment: Lysosomal activity (neutral red uptake); format: cell-based; conditions: 12.5 and 25 µM, 72 h, macrophages not stimulated by L. amazonensis
Method: RAW 264.7 macrophages were added (10^5 cells per well) to the 96-well plate in 100 μL of DMEM with different concentrations of β-ocimene (3.12–25 μM). The plate was incubated for 72 h at 37 °C and 5% CO2. Afterwards, 10 μL of neutral red 0.2% DMSO solution was added and incubated for 30 min. The supernatant was then removed, and the wells were washed with 0.9% saline at 37 °C, and 100 μL of extraction solution was added to dissolve the neutral red inside the lysosomal secretion vesicles. After 30 min on a Kline shaker, the plate was read at 540 nm.

[12] = tested on: RAW 264.7 macrophages; experiment: Phagocytosis assay (stained zymosan); format: cell-based; conditions: 3.12–25 μM, 72 h, macrophages not stimulated by L. amazonensis
Method: RAW 264.7 macrophages were plated in a 96-well plate at 10^5 cells per well in 100 μL of DMEM medium containing different concentrations of β-ocimene (3.12–25 μM). The plate was incubated for 72 h at 37 °C and 5% CO2; after which 10 μL of stained zymosan per well was added, and the plate conditioned for 30 min at 37 °C. Then, 100 μL of Baker’s fixative (4% v/v formaldehyde, 2% w/v sodium chloride, and 1% w/v calcium acetate in distilled water) was added to stop phagocytosis, and 30 min later, the plate was washed with 0.9% saline to remove the zymosan not phagocytized by macrophages. Afterwards, the supernatant was removed and 100 μL of extraction solution was added and solubilized in a Kline shaker. Absorbances were measured at 540 nm.

[13] = tested on: RAW 264.7 macrophages; experiment: Cytotoxic effect on mammalian cells (MTT, 72 h), RAW 264.7; format: cell-based; conditions: MTT
Method: as §3, §4

[14] = tested on: Vero cells; experiment: Cytotoxic effect on mammalian cells, Vero; format: cell-based
[15] = tested on: L. amazonensis axenic amastigotes; set-up: method as in PMID 23457021; conditions: read-out: IC50 against axenic amastigotes of L. amazonensis; cited from earlier work
[16] = tested on: L. amazonensis promastigotes; set-up: method as in PMID 19321295; conditions: read-out: IC50 against L. amazonensis promastigotes; cited from earlier work
[17] = Leishmania, read-out: % Cytotoxicity Axenic Amastigotes
[18] = Leishmania, read-out: % Cytotoxicity Promastigotes
[19] = Leishmania amazonensis, RAW264.7, 72 h
[20] = RAW 264.7 macrophages infected with L. amazonensis

Compound: Cc1ccc(C(C)C)c(O)c1 [thymol]
IC50 [1]: 48 µM

EC50 [6, 19]: 890 ± 30 nM
Compound: C=C/C(C)=C/CC=C(C)C [β-ocimene, beta-3,7-dimethyl-1,3,6-octatriene]
cytotoxicity at 1.56 µM [2, 17]: 59.1 ± 2.4%
cytotoxicity at 3.12 µM [2, 17]: 79.1 ± 3.7%
cytotoxicity at 6.25 µM [2, 17]: 100%
cytotoxicity at 12.5 µM [2, 17]: 100%
EC50 ([2]; Leishmania): 1.12 ± 0.05 µM
cytotoxicity at 1.56 µM [3, 18]: 27.3 ± 2.16%
cytotoxicity at 3.12 µM [3, 18]: 70.2 ± 2.2%
cytotoxicity at 6.25 µM [3, 18]: 81.4%
cytotoxicity at 12.5 µM [3, 18]: 100%
IC50 ([3]; Leishmania): 2.78 ± 0.17 µM
cytotoxicity at 72 h, 50 µM ([4]; pH 7.2, 50 µM): 1.17 ± 0.09%
cytotoxicity at 72 h, 100 µM ([4]; pH 7.2, 100 µM): 46.3 ± 4.11%
cytotoxicity at 72 h, 200 µM ([4]; pH 7.2, 200 µM): 56.6 ± 5.92%
cytotoxicity at 72 h, 400 µM ([4]; pH 7.2, 400 µM): 81.7 ± 8.16%
CC50 at 72 h [4]: 114 ± 8.2 µM
CC50 [5]: 299 ± 7.17 µM
cytotoxicity at 50 µM ([5]; 50 µM): 1.14 ± 0.1%
cytotoxicity at 100 µM ([5]; 100 µM): 6.04 ± 0.41%
cytotoxicity at 200 µM ([5]; 200 µM): 36.2 ± 4.26%
cytotoxicity at 400 µM ([5]; 400 µM): 69.2 ± 4.9%
times more selective than amphotericin B (selectivity index) ([6]; intra-macrophagic amastigote form): 42.88 times
infection index (infection rate) ([6]; low concentrations, 72 h): able to reduce
number of amastigotes per macrophage ([6]; low concentrations, 72 h): able to reduce
percentage of infected macrophages ([6]; low concentrations, 72 h): able to reduce
plasmatic membrane permeability (SYTOX green fluorescent signal) [7]: significant increase in permeability
morphological alterations (AFM) [8]: Loose membrane texture and abnormalities in the cell shape
IL-6 levels [9, 20]: decrease
IL-10 levels [9, 20]: decrease in levels of IL-10
IL-12 levels [9, 20]: did not affect IL-12 levels
NO production [9, 20]: increase
TNF-α production [9, 20]: increase in the production of TNF-α
cytokine levels of uninfected macrophages compared to the control ([9]; uninfected RAW 264.7 macrophages): no significant differences
ROS production [10]: increase
lysosomal volume (neutral red retention) [11]: increase in the volume of lysosomal vesicles
phagocytic activity (zymosan particles) [12]: no increase in phagocytosis of zymosan particles

EC50 [6, 19]: 130 nM
Compound: C[C@@H]1[C@H](O)[C@@H](C)/C=C/C=C/C=C/C=C/C=C/C=C/C=C/[C@H](O[C@@H]2O[C@H](C)[C@@H](O)[C@H](N)[C@@H]2O)C[C@@H]2O[C@](O)(C[C@@H](O)C[C@@H](O)[C@H](O)CC[C@@H](O)C[C@@H](O)CC(=O)O[C@H]1C)C[C@H](O)[C@H]2C(=O)O [Amphotericin B, reference compound]
EC50 ([2]; Leishmania): 0.51 ± 0.02 µM
IC50 ([3]; Leishmania): 0.35 ± 0.09 µM
CC50 at 72 h [4]: 0.39 ± 0.03 µM
CC50 [5]: 2.46 ± 0.6 µM

Compound: Meglumine antimoniate [reference compound]
EC50 [2]: 1730 ± 36.8 µM
IC50 [3]: 2150 ± 31 µM
CC50 [13]: 15.9 mM
CC50 [14]: 22.8 mM
EC50 ([6]; 72 h): 578000 ± 19100 nM

Compound: NC(=S)NN=Cc1ccc([N+](=O)[O-])cc1 [4-nitrobenzaldehyde thiosemicarbazone]
IC50 [15]: 8 µM

Compound: Cc1ccc(C(C)C)cc1O [carvacrol]
IC50 [1]: 65 µM

Compound: C=C(C)[C@H]1CC=C(C)CC1 [limonene]
IC50 [16]: 252 µM
